The text below walks through data of patent publication US10927136B2, “Phosphorus prodrugs of pyrazolo-substituted pyrimidine sGC stimulators” (Cyclerion Therapeutics, Inc., priority 2016, dated 2021).

Data set [1] is described as follows: Ex-vivo rat intestinal fluid stability assay. The class given is in vitro ADME. The arrangement: half-life: dose or concentration left out as unconfirmed. Conditions: 37° C.; for prodrug converted into its parent drug / cleaved: after 60 minutes of incubation; for half-life: rat intestinal (jejunum) fluid, read-out: disappearance half-life (T1/2). The protocol:
Phosphate prodrugs disclosed herein were designed to be cleaved by alkaline phosphatase(s) that are present on the apical brush-border membranes of the intestine, after which the more hydrophobic parent compound is readily absorbed. Phosphatases are also present in the liver and in the systemic circulation. In order to test the speed of cleavage of the prodrug into the parent drug, […] solutions of each of the test compounds were incubated in rat intestinal (jejunum) fluid. Samples were taken at times=0, 5, 15, 30 and 60 min and the mixtures were quenched by the addition of acetonitrile containing an internal standard. Samples were analyzed by full scan LC/MS. The following protocol was used:
10 mM DMSO stock solutions were thawed or prepared for the positive control (Enalapril) and each test article. Internal standard (IS) crash solution in acetonitrile (ACN) with 20 ng/ml of Compound Z, depicted below, was prepared. Stock (250 uM) was prepared from 10 mM in 50/50 acetonitrile/H2O. Rat intestinal fluid vials were thawed in a water bath at rt.
In a 96-well, 1 ml plate, 48 uL of rat intestinal fluid was aliquoted in triplicate for each time point. The t0 (“0 min”) time point was prepared separately by adding 450 ul of IS crash solution to 48 ul of intestinal fluid, then adding 2 uL of test compound. 2 ul of the 250 uM substock was added to initiate the reaction at 5 min, 15 min, 30 min, and 60 min. The plate prepared in the above steps was covered with a plastic or foil seal and was set in the 37° C. incubator, lightly shaking. For each time point, 450 ul of IS crash solution was added to quench the reaction. The plates were centrifuged at 4000 RPM for 10 minutes at 4° C. 50 ul of supernatant was transferred into 50 ul of H2O and analyzed using LC/MS.
The disappearance of the prodrug and the conversion to the parent were monitored over time.

Data set [2] has as its target T1, HEK (Homo sapiens, UniProt Q02108+Q02153).
T1 construct: sGC enzyme activity values in HEK cells; endogenous in cells; host or cells: HEK cells
T1 sequence (Q02153 1-619): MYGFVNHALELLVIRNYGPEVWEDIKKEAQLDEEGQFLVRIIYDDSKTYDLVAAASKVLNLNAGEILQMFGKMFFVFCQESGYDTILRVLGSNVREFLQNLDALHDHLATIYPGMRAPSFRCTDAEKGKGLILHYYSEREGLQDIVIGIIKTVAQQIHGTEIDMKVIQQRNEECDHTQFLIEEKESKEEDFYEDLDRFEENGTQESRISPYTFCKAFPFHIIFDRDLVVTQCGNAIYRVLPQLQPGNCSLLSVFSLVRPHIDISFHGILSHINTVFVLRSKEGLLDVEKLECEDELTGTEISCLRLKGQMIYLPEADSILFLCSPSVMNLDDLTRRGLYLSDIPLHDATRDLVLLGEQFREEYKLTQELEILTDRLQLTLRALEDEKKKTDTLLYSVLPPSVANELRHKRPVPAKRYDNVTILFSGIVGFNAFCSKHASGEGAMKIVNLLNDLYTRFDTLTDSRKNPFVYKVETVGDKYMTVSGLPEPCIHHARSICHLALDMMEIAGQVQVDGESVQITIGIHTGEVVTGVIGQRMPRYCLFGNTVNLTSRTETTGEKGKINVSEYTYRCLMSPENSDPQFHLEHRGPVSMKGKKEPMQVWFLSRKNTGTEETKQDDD
T1 sequence (Q02108 1-690): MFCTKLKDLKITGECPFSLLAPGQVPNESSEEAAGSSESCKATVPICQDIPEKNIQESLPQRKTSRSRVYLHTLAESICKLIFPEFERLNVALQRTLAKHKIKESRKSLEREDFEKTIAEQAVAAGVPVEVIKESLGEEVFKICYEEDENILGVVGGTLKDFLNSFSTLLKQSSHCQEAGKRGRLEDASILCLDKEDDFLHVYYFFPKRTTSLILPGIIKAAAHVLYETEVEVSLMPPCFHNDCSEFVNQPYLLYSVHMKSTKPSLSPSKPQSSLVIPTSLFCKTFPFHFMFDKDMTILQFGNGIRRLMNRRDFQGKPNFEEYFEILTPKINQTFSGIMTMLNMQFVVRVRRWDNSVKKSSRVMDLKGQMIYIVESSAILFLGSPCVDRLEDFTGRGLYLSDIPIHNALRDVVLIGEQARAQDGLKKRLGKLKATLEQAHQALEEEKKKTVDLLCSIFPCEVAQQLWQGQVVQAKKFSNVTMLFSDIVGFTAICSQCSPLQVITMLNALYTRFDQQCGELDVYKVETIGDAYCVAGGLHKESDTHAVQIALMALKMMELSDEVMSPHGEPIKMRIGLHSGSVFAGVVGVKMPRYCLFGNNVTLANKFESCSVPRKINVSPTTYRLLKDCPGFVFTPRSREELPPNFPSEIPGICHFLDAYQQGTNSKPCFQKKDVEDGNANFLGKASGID
The data set is described as follows: HEK EC50 quoted in rat PO PK table (assay version not stated). Type of data set: cell-based. The conditions noted are these: listed in rat PO PK table for Intermediate 3.

For `O=P(O)(O)OC(CNc1nc(-c2cc(-c3ccon3)n(Cc3ccccc3F)n2)ncc1F)(C(F)(F)F)C(F)(F)F` [Compound I-1], the “prodrug converted into its parent drug” value in data set [1] (after 30 minutes of incubation) is listed as “About 80%”. In data set [1], the “prodrug converted into its parent drug / cleaved” value is recorded as “about 95%” and the half-life was 16 min.
For the compound `O=P(O)(O)OCOC(CNc1nc(-c2cc(-c3ccon3)n(Cc3ccccc3F)n2)ncc1F)(C(F)(F)F)C(F)(F)F` [Compound I-4], in data set [1], the “prodrug converted into its parent drug / cleaved” value was “More than 99%” and the half-life amounted to 9 min.
One may read the EC50 as the concentration giving half of the maximal effect. `OC(CNc1nc(-c2cc(-c3ccon3)n(Cc3ccccc3F)n2)ncc1F)(C(F)(F)F)C(F)(F)F` [Intermediate 3]: in data set [2], a half-maximal effect (EC50) was put at 100 nM.
